Data reported in patent US9206191B2, “Indazoles for the treatment and prophylaxis of respiratory syncytial virus infection” (Hoffmann-La Roche Inc., priority 2012, dated 2015).

Experiments:
[1] = single dose PK in male ICR mouse (IV and PO); format: in vivo; conditions: male ICR mice; for AUC(0-t) / half-life: mouse, plasma
Experimental: The single dose PK in male ICR mouse was performed to assess their pharmacokinetic properties. Two groups of animals were dosed via either bolus intravenous (IV) or oral gavage (PO) of the respective compound. The animals for oral administration were fasted overnight prior to dosing and food was resumed 4 hours postdose. Blood samples (approximately 400 μL) were collected via cardiac puncture after euthanasia by carbon dioxide inhalation at 2 min, 5 min, 15 min, 30 min, 1 h, 2 h, 4 h, 6 h, 8 h, and 24 h postdose for IV group, and at 5 min, 15 min, 30 min, 1 h, 2 h, 4 h, 6 h, 8 h, and 24 h postdose for PO group. Blood samples were placed into tubes containing sodium heparin and centrifuged at 8000 rpm for 6 minutes at 4° C. to separate plasma from the samples. Following centrifugation, the resulting plasma was transferred to clean tubes for bioanalysis on LC/MS/MS. The pharmacokinetic parameters were calculated using non-compartmental module of WinNonlin® Professional 5.2.

[2] = test system: RSV Long strain; assay: Viral Cytopathic Effect (CPE) Assay; format: cell-based; conditions: human respiratory syncytial virus, 144 h, cell viability after 6 days, Cell Counting kit-8
[3] = test system: RSV; conditions: Phase III clinical trials; cited from earlier work
[4] = test system: RSV infection; conditions: intramuscularly at 15 mg/kg once a month for the duration of RSV season; selected infants; cited from earlier work

Compound: CS(=O)(=O)c1nn(Cc2nc3cc(Cl)ccc3n2CCC(F)(F)F)c2cnccc12 [Example 2-21, 1-{[5-Chloro-1-(3,3,3-trifluoropropyl)-1H-benzimidazol-2-yl]methyl}-3-(methylsulfonyl)-1H-pyrazolo[3,4-c]pyridine]
- CLz ([1]; IV (1.65 mg/Kg)): 10.6 mL/min/kg
- F ([1]; PO (8.27 mg/kg)): 37.1%
- AUC(0-t) ([1]; IV (1.65 mg/Kg)): 2590 ng·h/mL
- half-life ([1]; IV (1.65 mg/Kg)): 169 min
- AUC(0-t) ([1]; PO (8.27 mg/kg)): 4800 ng·h/mL
- half-life ([1]; PO (8.27 mg/kg)): 190 min
- EC50 [2]: 19.1 nM

Compound: CS(=O)(=O)c1nn(Cc2nc3cc(Cl)ccc3n2CC2COC2)c2cnccc12 [Example 2-22, 1-{[5-Chloro-1-(oxetan-3-ylmethyl)-1H-benzimidazol-2-yl]methyl}-3-(methylsulfonyl)-1H-pyrazolo[3,4-c]pyridine]
- CLz ([1]; IV (1 mg/Kg)): 16.9 mL/min/kg
- F ([1]; PO (12.2 mg/kg)): 23.8%
- AUC(0-t) ([1]; IV (1 mg/Kg)): 976 ng·h/mL
- half-life ([1]; IV (1 mg/Kg)): 93 min
- AUC(0-t) ([1]; PO (12.2 mg/kg)): 2430 ng·h/mL
- half-life ([1]; PO (12.2 mg/kg)): 147 min
- EC50 [2]: 6 nM

Compound: CS(=O)(=O)c1nn(Cc2nc3cc(Cl)ccc3n2CCCC(F)(F)F)c2cnccc12 [Example 4-3, 1-{[5-Chloro-1-(4,4,4-trifluorobutyl)-1H-benzimidazol-2-yl]methyl}-3-(methylsulfonyl)-1H-pyrazolo[3,4-c]pyridine]
- CLz ([1]; IV (2 mg/kg)): 43.4 mL/min/kg
- F ([1]; PO (6 mg/kg)): 46.0%
- AUC(0-t) ([1]; IV (2 mg/kg)): 760 ng·h/mL
- half-life ([1]; IV (2 mg/kg)): 75.6 min
- AUC(0-t) ([1]; PO (6 mg/kg)): 1050 ng·h/mL
- half-life ([1]; PO (6 mg/kg)): 49.9 min
- EC50 [2]: 5 nM

Compound: CCC(=O)N1CC[C@@H](n2c(Cn3nc(S(C)(=O)=O)c4ccccc43)nc3cc(Cl)ccc32)C1 [Example 6-3, 1-[(3R)-3-(5-Chloro-2-{[3-(methylsulfonyl)-1H-indazol-1-yl]methyl}-1H-benzimidazol-1-yl)pyrrolidin-1-yl]propan-1-one]
- EC50 [2]: 6.07 nM

Compound: CC(C)C(=O)N1CC[C@@H](n2c(Cn3nc(S(C)(=O)=O)c4ccncc43)nc3cc(Cl)ccc32)C1 [Example 6-4, 1-[(3R)-3-(5-Chloro-2-{[3-(methylsulfonyl)-1H-pyrazolo[3,4-c]pyridin-1-yl]methyl}-1H-benzimidazol-1-yl)pyrrolidin-1-yl]-2-methylpropan-1-one]
- EC50 [2]: 4 nM

Compound: CC(C)(O)C(=O)N1CC[C@@H](n2c(Cn3nc(S(C)(=O)=O)c4ccncc43)nc3cc(Cl)ccc32)C1 [Example 6-5, 1-[(3R)-3-(5-Chloro-2-{[3-(methylsulfonyl)-1H-pyrazolo[3,4-c]pyridin-1-yl]methyl}-1H-benzimidazol-1-yl)pyrrolidin-1-yl]-2-hydroxy-2-methylpropan-1-one]
- EC50 [2]: 13 nM

Compound: CS(=O)(=O)c1nn(Cc2nc3cc(Cl)ccc3n2[C@@H]2CCN(S(C)(=O)=O)C2)c2cnccc12 [Example 6-6, 1-({5-Chloro-1-[(3R)-1-(methylsulfonyl)pyrrolidin-3-yl]-1H-benzimidazol-2-yl}methyl)-3-(methylsulfonyl)-1H-pyrazolo[3,4-c]pyridine]
- EC50 [2]: 3 nM

Compound: CS(=O)(=O)c1nn(Cc2nc3cc(Cl)ccc3n2[C@@H]2CCN(CCO)C2)c2cnccc12 [Example 6-7, 2-[(3R)-3-(5-Chloro-2-{[3-(methylsulfonyl)-1H-pyrazolo[3,4-c]pyridin-1-yl]methyl}-1H-benzimidazol-1-yl)pyrrolidin-1-yl]ethanol]
- EC50 [2]: 3.68 nM

Compound: CS(=O)(=O)c1nn(Cc2nc3cc(Cl)ccc3n2C2CNC(=O)C2)c2cnccc12 (stereo not drawn) [Example 7, 4-(5-Chloro-2-{[3-(methylsulfonyl)-1H-pyrazolo[3,4-c]pyridin-1-yl]methyl}-1H-benzimidazol-1-yl)pyrrolidin-2-one]
- EC50 [2]: 8.43 nM

Compound: CS(=O)(=O)c1nn(Cc2nc3cc(Cl)ccc3n2C2CNC3(COC3)C2)c2cnccc12 (stereo not drawn) [Example 8, 1-{[5-Chloro-1-(2-oxa-5-azaspiro[3.4]oct-7-yl)-1H-benzimidazol-2-yl]methyl}-3-(methanesulfonyl)-1H-pyrazolo[3,4-c]pyridine]
- EC50 [2]: 19.4 nM

Compound: CS(=O)(=O)CCn1c(Cn2nc(S(C)(=O)=O)c3ccncc32)cc2cc(Cl)ccc21 [Example 9-1, 1-({5-Chloro-1-[2-(methylsulfonyl)ethyl]-1H-indol-2-yl}methyl)-3-(methylsulfonyl)-1H-pyrazolo[3,4-c]pyridine]
- EC50 [2]: 3.71 nM

Compound: CS(=O)(=O)CCCn1c(Cn2nc(S(C)(=O)=O)c3ccncc32)cc2cc(Cl)ccc21 [Example 9-2, 1-({5-Chloro-1-[3-(methylsulfonyl)propyl]-1H-indol-2-yl}methyl)-3-(methylsulfonyl)-1H-pyrazolo[3,4-c]pyridine]
- EC50 [2]: 8.12 nM

Compound: CS(=O)(=O)CCn1c(Cn2nc(S(C)(=O)=O)c3ccncc32)cc2cc(Cl)cc(F)c21 [Example 9-3, 1-({5-Chloro-7-fluoro-1-[2-(methylsulfonyl)ethyl]-1H-indol-2-yl}methyl)-3-(methylsulfonyl)-1H-pyrazolo[3,4-c]pyridine]
- EC50 [2]: 7.21 nM

Compound: CS(=O)(=O)c1nn(Cc2nc3cc(Cl)ccc3n2[C@H]2C[C@H](CO)C2)c2cnccc12 [Example 11, [trans-3-(5-chloro-2-{[3-(methylsulfonyl)-1H-pyrazolo[3,4-c]pyridin-1-yl]methyl}-1H-benzimidazol-1-yl)cyclobutyl]methanol]
- EC50 [2]: 3 nM

Compound: CS(=O)(=O)c1nn(Cc2nc3cc(Cl)cc(F)c3n2[C@@H]2CCS(=O)(=O)C2)c2cnccc12 [Example 12, 1-({5-chloro-1-[(3R)-1,1-dioxidotetrahydrothiophen-3-yl]-7-fluoro-1H-benzimidazol-2-yl}methyl)-3-(methylsulfonyl)-1H-pyrazolo[3,4-c]pyridine]
- EC50 [2]: 2 nM

Compound: [2H]C([2H])(O)CCn1c(Cn2nc(S(C)(=O)=O)c3ccncc32)nc2cc(Cl)ccc21 [Example 13, 3-(5-chloro-2-{[3-(methylsulfonyl)-1H-pyrazolo[3,4-c]pyridin-1-yl]methyl}-1H-benzimidazol-1-yl)(1,1-^2H2)propan-1-ol]
- EC50 [2]: 3 nM

Compound: CC(O)(CCn1c(Cn2nc(S(C)(=O)=O)c3ccncc32)nc2cc(Cl)ccc21)C(F)(F)F (stereo not drawn) [Example 14, 4-(5-chloro-2-{[3-(methylsulfonyl)-1H-pyrazolo[3,4-c]pyridin-1-yl]methyl}-1H-benzimidazol-1-yl)-1,1,1-trifluoro-2-methylbutan-2-ol]
- EC50 [2]: 2.8 nM

Compound: C[C@H](c1nc2cc(Cl)ccc2n1CCC(F)(F)F)n1nc(S(C)(=O)=O)c2ccncc21 [Example 15-1, 1-{(1R)-1-[5-chloro-1-(3,3,3-trifluoropropyl)-1H-benzimidazol-2-yl]ethyl}-3-(methylsulfonyl)-1H-pyrazolo[3,4-c]pyridine]
- EC50 [2]: 227 nM

Compound: C[C@@H](c1nc2cc(Cl)ccc2n1CCC(F)(F)F)n1nc(S(C)(=O)=O)c2ccncc21 [Example 15-2, 1-{(1S)-1-[5-Chloro-1-(3,3,3-trifluoropropyl)-1H-benzimidazol-2-yl]ethyl}-3-(methylsulfonyl)-1H-pyrazolo[3,4-c]pyridine]
- EC50 [2]: 68 nM

Compound: motavizumab: A newer version monoclonal antibody, designed as potential replacement of palivizumab
- benefit over palivizumab [3]: failed to show additional benefit over palivizumab

Compound: palivizumab: a humanized monoclonal antibody against RSV fusion (F) protein approved for prophylaxis in high-risk infants
- reduction of hospitalization rate caused by RSV infection [4]: 45-55%
